Measured values reported in patent publication EP2740727B1, “Quinazolinone analogues for use as anticonvulsant agents” (King Saud University, priority 2012, dated 2014).
Where two headings read alike, the source gives them in different places.

How the values were obtained:
Albino Swiss mice [1] = test: Acute toxicity determination (LD50); details: Therapeutic index = LD50/ED50
Procedure: (§1) The acute toxicity detenninatioii (LD50) for compounds of formula 1 was performed. Compounds were given intraperitoneally (i.p.) in doses ranging from 0.1-5 mmol/kg. […] All behavioral changes and death during the observation periods were recorded. […] The protective index (PI) and therapeutic index (TI) of each compound were calculated.
(§2) Initially the approximate LD50 of each test compound was determined. Albino Swiss mice (25 g body weight) were then divided into 4 groups (6 mice each). […] The animals were then observed closely for 4 hours and then occasionally for 72 hours. The percentage of death in each group was then calculated.

[2] = system: Pentylenetetrazole (PTZ)-induced convulsion; test: Pentylenetetrazole (PTZ) seizure threshold test; assay type: in vivo, Swiss albino mice; details: for ED50: Mus musculus, ip, median effective dose, mice, log-probit method; for % Protection: PTZ 100 mg/kg i.p. 30 min later, 4 animals; for protection against PTZ-induced seizures: dose not given (tested 25, 50, 100 and 200 mg/kg i.p.)
Procedure: Adult male Swiss […] mice (22-28 g), approximately 10-week old, were used to conduct the anticonvulsant evaluation. They were housed in cages and kept at a temperature of 20 ± 2°C and a relative humidity of 55 ± 5% with a light-dark cycle of 12 h and fed with standard diet and water ad libitum. […] A control group of mice was included and received intraperitoneal (i.p.) injections of the test compounds' vehicle. […] Picrotoxin (pic) was freshly dissolved in 1 ml 0.1N warmed HCl and the final volume was made up with 0.9% NaCl.
A single 5 seconds episode of clonic spasms was taken as a threshold seizure.
In each of the chemical and the electrical methods described above, Swiss albino mice were divided into 4 groups (N = 4 animals).

in vivo [3] = details: mouse, ip
Procedure: (§3) Median effective (ED50), and median sedative (TD50) were calculated.

motor performance = test: Minimal neurotoxicity (chimney test), motor performance; details: Protective index = TD50/ED50
Procedure: as §3

in vivo [4] = details: mouse, ip; remark: listed apart in the source
Procedure: as §1, §2

Albino Swiss mice [5] = details: mouse, in vivo, 72 h
Procedure: as §1, §2

Structure (SMILES) | TI (Albino Swiss mice [1]) | ED50 [2] [mg/kg] | % Protection ([2]; dose 50 mg/Kg i.p. [sic]) [%] | protection against PTZ-induced seizures [2] [%] | TD50 (in vivo [3]) [mg/kg] | PI (motor performance) | LD50 at 72 h (in vivo [4]; Albino Swiss) [mg/kg] | % Protection ([2]; dose 150 mg/Kg i.p.) [%] | LD50 at 72 h (in vivo [4]) [mg/kg] | TI (Albino Swiss mice [5])
COc1cc2nc(SCC(=O)NN)n(Cc3ccccc3)c(=O)c2cc1OC [Compound 70, 2-(3-Benzyl-6,7-dimethoxy-4-oxo-3,4-dihydro-quinazolin-2-yl-thio)acetohydrazide] | 11.25 | 32 | 100 | 100 | 149 | 4.67 | 360 | – | – | –
CCC(=O)NNC(=O)CSc1nc2ccc(Cl)cc2c(=O)n1-c1ccccc1 [Compound 89, N'-[2-(6-Chloro-4-oxo-3-phenyl-3,4-dihydro-quinazolin-2yl-thio)acetyl]propionohydrazide] | 24.6 | 11.8 | 100 | 100 | 100 | 8.5 | 290 | – | – | –
CC(=O)NNC(=O)CSc1nc2ccc(Cl)cc2c(=O)n1Cc1ccccc1 [Compound 105, N'-Acetyl-2-(3-benzyl-6-chloro-4-oxo-3,4-dihydro-quinazolin-2-yl-thio)acetohydrazide] | 9.7 | 24.8 | – | 100 | 215 | 8.7 | 240 | 100 | – | –
CCC(=O)NNC(=O)CSc1nc2cc(OC)c(OC)cc2c(=O)n1Cc1ccccc1 [Compound 110, N'-(2-(3-Benzyl-6,7-dimethoxy-4-oxo-3,4-dihydro-quinazolin-2-yl-thio)acetyl)propionohydrazide] | 5.1 | 32.7 | – | 100 | 134 | 4.1 | 168 | 100 | – | –
O=C(CCc1ccccc1)NNC(=O)CSc1nc2ccc(Cl)cc2c(=O)n1Cc1ccccc1 [Compound 115, N'-(2-(3-Benzyl-6-chloro-4-oxo-3,4-dihydro-quinazolin-2-yl-thio)acetyl)-3-phenylpropanehydrazide] | 9.8 | 29.5 | – | 100 | 136 | 4.6 | 290 | 100 | – | –
CCCC(CCC)C(=O)[O-].[Na+] [Sodium Valproate, Sodium valproate, reference compound] | – | 189 | 100 | – | 470 | – | – | – | 985 | 5.2
